Experimental data from patent publication US9681647B2, “Mammal with an orthotopic tumor capable of metastasis, a method of making and a method of using” (Cornell University, priority 2012, dated 2017).
Marks after values point to notes of the source that are not given here.

Assays:
[1] = system: metastatic tumors made according to the present disclosure; assay: Oxaliplatin treatment of metastatic tumors versus primary GI tumors and subcutaneous xenografts; type: in vivo
[2] = system: early stage CCIC colon/intestine and ex-GI xenograft tumors (CCR9/CCL25 axis); assay: CCIC xenograft tumor formation after tail vein injection, CCR9/CCL25 blocked before or with cell injection (Table 2); type: in vivo, NOD/SCID mice
From the text: CCR9 constitutive and inducible knockdown; Snail or CD26 knockdown in CCIC and NOTCH reporter CCIC. The lentiviral vector pEco-CMV-H1-shRNA-GFP encoding a shRNA hairpin sequence (CCR9: 5′-CTTGTACTGGC[…] ID NO:14; Snail: 5′-GAGCTGCAGG[…] ID NO:15; CD26: 5′-CATTCCTACAC[…] ID NO:16) was used for CCR9, Snail or CD26 expression knockdown and the lentiviral vectors pEco-CMV-H1-GFP (GenTarget Inc, San Diego, Calif.) and pEco-CMV-H1-scrambled-shRNA-GFP served as controls. To generate the lentiviral vectors, the above plasmids were transfected into HEK293T cells with the Genetargetlentivirus packaging mix (GenTarget Inc, San Diego, Calif.) according to the manufacturer's protocol. For CCR9 tetracycline inducible knockdown, the same shRNA hairpin sequence against CCR9 gene was inserted into pLenti-H1-shRNA-RSV (GFP-Puro) vector (GenTarget Inc, San Diego, Calif.) and packaged into lentivirus particles, which were used together with another TetR expression lentivirus (RFP-Bsd)(GenTarget Inc, San Diego, Calif.) to infect CCICs. After antibiotic selection and GFP/RFP dual FACS purification, the CCR9 shRNA knockdown can be induced by 1 ug/ml (in vitro) or 1 mg/ml (in vivo) doxycycline. NOTCH signaling reporter CCIC was generated by infecting CCIC with pCignalLenti RBP-Jk Reporter (GFP) ready lentivirus (SABiosciences, Inc.). After infecting CCIC lines with these lentiviral vectors, stable knockdown clones were obtained through antibiotic selection of blasticidin (Invitrogen, Carlsbad, Calif.). The efficiency of the CCR9, SNAIL or CD26 knockdown in CCIC was verified by Western Blotting and efficiency of NOTCH signaling reporter was tested by 2 μg/ml Jagged-1 (AnaSpec) treatment following by GFP-FACS sorting.
CCIC xenograft tumor formation in colon/intestine and other organs. 0.5-1×10^6CCIC or common CRC cells were injected into 6-8 weeks old non-obese diabetic/severe combined immunodeficient (NOD/SCID) mice (Jackson Laboratory, Bar Harbor, Me.) by tail vein injection. Tumor incidence was monitored 2-3× weekly. When mice became moribund, they were sacrificed immediately, necropsy performed and tumors harvested using a dissecting microscope. For ex vivo GFP imaging of tumor tissues, lentiviral infection by the pEco-CMV-GFP vector was used to generate CCIC lines that stably express GFP and maintained in puromycin selection. 10^6 of these fluorescent CCIC were systemically injected as described above. Intestinal tissues harvested at the time of sacrifice were analyzed for GFP expression with Cri Maestro Imaging Systems (Cambridge Research & Instrumentation Inc, Woburn, Mass.).
For the CCR9 study, native CCICs, CCICs with CCR9, Snail (SNAL1) or CD26 knockdown (or commonly used CRC cell lines such as HCT116, etc. as indicated), CCR9+ CCIC with CCR9 inducible knockdown were intravenously inoculated into the 6-8 weeks old NOD/SCID mice by tail vein. Mice that became moribund were sacrificed immediately, whereas the rest were closely monitored for 16 weeks before sacrifice. To test whether CCL25 antibody could inhibit the CCL25-CCR9 GI homing mechanism in vivo, a dose of 100 ug goat anti-mouse CCL25 neutralization antibody (R&D systems, Cat #AF-481-NA), was IP administrated to each mouse twice (the same dose and schedule as used in). As a negative control, a dose of 100 ug Goat IgG (R&D systems) was administered to each mouse in the control group. Then 1×10^6CCIC were injected into the mice 8 hours after or with the injection of the antibody. To test whether extra-GI metastasis is induced by CCR9/CCL25 signaling blockade, CCL25 neutralization antibody with the same dose was IP administrated to each mouse every three days or 1 mg/ml doxycycline in drinking water was given to mice every other days starting from the fourth week after CCIC inoculation until mice get moribund.

[3] = mice tail vein injected with early stage CCIC, blockade before/concurrent with injection or constitutive shRNA KD

Row | Molecule | chemoresistance of metastatic tumors relative to primary GI tumors and subcutaneous xenografts [1] | overall survival of mice vs. control ([2]; mice systemically injected with CCIC, Kaplan-Meier, FIG. 6C) | Ex-GI Tumor Incidence (%) [2, 3] [%] | GI Tumor Incidence (%) [2, 3] | Mean Ex-GI Tumors/Mouse [2, 3] | Mean GI Tumors/mouse [2, 3] | Mean Progression (weeks) ([2]; mice tail vein injected with early stage CCIC, time until moribund, blockade before/concurrent with injection or constitutive shRNA KD)
1 | O=C1[O][Pt]2([NH][C@@H]3CCCC[C@H]3[NH]2)[O]C1=O [oxaiplatin] | more chemoresistant | – | – | – | – | – | –
2 | CCR9 KD: constitutive lentiviral shRNA against CCR9 (hairpin 5'-CTTGTACTGGCTCGTGTTCAT, SEQ ID NO:14) expressed in CCIC | – | significantly longer | 85.7 | 14.3* % | 105.0* | 0.3* | 13.0* weeks
